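These data come from cells grown in 96-well plates and exposed to compound for 48 hours at five concentrations. Abbreviation: GI50, concentration required for 50% inhibition of growth.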 The source made the active and inactive calls. Rule as the data show it: active = GI50 up to about 1.1 µM and inactive = higher.
Experiments:
Experiment in all cases: NCI-60 cell line screen, 48 h
U-251 = test system: U-251
NCI-H226 = test system: NCI-H226
M14 = test system: M14
OVCAR-4 = test system: OVCAR-4
PC-3 = test system: PC-3
A498 = test system: A498
SK-OV-3 = test system: SK-OV-3
DU-145 = test system: DU-145
MDA-MB-231 = test system: MDA-MB-231
UO-31 = test system: UO-31
EKVX = test system: EKVX
COLO 205 = test system: COLO 205
OVCAR-5 = test system: OVCAR-5
SF-539 = test system: SF-539
SNB-19 = test system: SNB-19
HCC 2998 = test system: HCC 2998
MDA-N = test system: MDA-N
MCF7 = test system: MCF7
HL-60 = test system: HL-60
SR = test system: SR

| Compound | GI50 (U-251) | GI50 (NCI-H226) | GI50 (M14) | GI50 (OVCAR-4) | GI50 (PC-3) | GI50 (A498) | GI50 (SK-OV-3) | GI50 (DU-145) | GI50 (MDA-MB-231) | GI50 (UO-31) | GI50 (EKVX) | GI50 (COLO 205) | GI50 (OVCAR-5) | GI50 (SF-539) | GI50 (SNB-19) | GI50 (HCC 2998) | GI50 (MDA-N) | GI50 (MCF7) | GI50 (HL-60) | GI50 (SR) |
| --- | --- | --- | --- | --- | --- | --- | --- | --- | --- | --- | --- | --- | --- | --- | --- | --- | --- | --- | --- | --- |
| Brc1ccc2c(-c3csc(-c4c[nH]c5ccccc45)n3)c[nH]c2c1 | 17.9 µM (inactive) | 14.5 µM (inactive) | 14.3 µM (inactive) | 16 µM (inactive) | 15.6 µM (inactive) | 17 µM (inactive) | 18.9 µM (inactive) | 18.8 µM (inactive) | 16.1 µM (inactive) | 14 µM (inactive) | 15.6 µM (inactive) | 12.8 µM (inactive) | 16.1 µM (inactive) | 16 µM (inactive) | 17.8 µM (inactive) | 15.1 µM (inactive) | – | – | – | – |
| O=C1CC(c2ccc(Cl)cc2)C2(C(=O)NC(=O)NC2=O)C(c2ccc(Cl)cc2)C1 (centres undefined) | 27.5 µM (inactive) | 16 µM (inactive) | 27.7 µM (inactive) | 38.5 µM (inactive) | 30.5 µM (inactive) | – | – | 21.7 µM (inactive) | 13.4 µM (inactive) | 25.6 µM (inactive) | 47.4 µM (inactive) | 20.2 µM (inactive) | 31.3 µM (inactive) | 28.2 µM (inactive) | 32.3 µM (inactive) | 27.9 µM (inactive) | 19.8 µM (inactive) | 22.3 µM (inactive) | 19.5 µM (inactive) | – |
| COc1ccccc1CNC(=O)[C@H](Cc1ccc(O)cn1)NC(C)=O | > 100 µM (inactive) | > 100 µM (inactive) | > 100 µM (inactive) | > 100 µM (inactive) | > 100 µM (inactive) | > 100 µM (inactive) | > 100 µM (inactive) | > 100 µM (inactive) | – | > 100 µM (inactive) | > 100 µM (inactive) | > 100 µM (inactive) | > 100 µM (inactive) | > 100 µM (inactive) | > 100 µM (inactive) | > 100 µM (inactive) | > 100 µM (inactive) | > 100 µM (inactive) | > 100 µM (inactive) | > 100 µM (inactive) |
| COc1cc2c(c(OC)c1OC)-c1ccc(OC)c(=O)cc1C(NC(=O)c1ccc(N=[N+]=[N-])cc1)CC2 (centres undefined) | 0.0307 µM (active) | 0.451 µM (active) | 0.037 µM (active) | 1.24 µM (inactive) | – | 0.0186 µM (active) | 0.0292 µM (active) | 0.0378 µM (active) | 0.0352 µM (active) | 9.08 µM (inactive) | 0.132 µM (active) | 0.021 µM (active) | – | 0.0238 µM (active) | 0.0767 µM (active) | 0.0215 µM (active) | – | 0.0144 µM (active) | 0.0272 µM (active) | 0.0435 µM (active) |

— ChEMBL document CHEMBL1201862, “PubChem BioAssay data set” (2004)
